Assay: pH-dependent solubility of Compound A
Type: physicochemical
Conditions: particularly between pH 1-4

## COC(=O)N[C@H](C(=O)N1CCC[C@H]1c1ncc(-c2cc(F)c3c(c2)O[C@@H](c2cnc(C4CC4)s2)n2c-3cc3cc(-c4cnc([C@@H]5CCCN5C(=O)[C@@H](NC(=O)OC)C(C)C)[nH]4)ccc32)[nH]1)C(C)C [Compound A, dimethyl ((2S,2′S)-((2S,2′S)-2,2′-(5,5′-((S)-6-(2-cyclopropylthiazol-5-yl)-1-fluoro-6H-benzo[5,6][1,3]oxazino[3,4-a]indole-3,10-diyl)bis(1H-imidazole-5,2-diyl))bis(pyrrolidine-2,1-diyl))bis(3-methyl-1-oxobutane-2,1-diyl))dicarbamate]
  solubility profile: sharp pH-dependent solubility profile
